# From ChEMBL document CHEMBL5154655, “Identification of indole-based activators of insulin degrading enzyme” (Eur J Med Chem, 2022)
# How the values were obtained:
# Insulin-degrading enzyme = biological target: T1, Insulin-degrading enzyme (Homo sapiens, UniProt P14735); test: Activation of human recombinant IDE using ATTO 655-Cys-Lys-Leu-Val-Phe-Phe-Ala-Glu-Asp-trp as substrate incubated for 10 mins followed by substrate addition and measured after 20 mins by fluorescence spectrophotometer analysis
# T1 sequence (P14735 whole entry): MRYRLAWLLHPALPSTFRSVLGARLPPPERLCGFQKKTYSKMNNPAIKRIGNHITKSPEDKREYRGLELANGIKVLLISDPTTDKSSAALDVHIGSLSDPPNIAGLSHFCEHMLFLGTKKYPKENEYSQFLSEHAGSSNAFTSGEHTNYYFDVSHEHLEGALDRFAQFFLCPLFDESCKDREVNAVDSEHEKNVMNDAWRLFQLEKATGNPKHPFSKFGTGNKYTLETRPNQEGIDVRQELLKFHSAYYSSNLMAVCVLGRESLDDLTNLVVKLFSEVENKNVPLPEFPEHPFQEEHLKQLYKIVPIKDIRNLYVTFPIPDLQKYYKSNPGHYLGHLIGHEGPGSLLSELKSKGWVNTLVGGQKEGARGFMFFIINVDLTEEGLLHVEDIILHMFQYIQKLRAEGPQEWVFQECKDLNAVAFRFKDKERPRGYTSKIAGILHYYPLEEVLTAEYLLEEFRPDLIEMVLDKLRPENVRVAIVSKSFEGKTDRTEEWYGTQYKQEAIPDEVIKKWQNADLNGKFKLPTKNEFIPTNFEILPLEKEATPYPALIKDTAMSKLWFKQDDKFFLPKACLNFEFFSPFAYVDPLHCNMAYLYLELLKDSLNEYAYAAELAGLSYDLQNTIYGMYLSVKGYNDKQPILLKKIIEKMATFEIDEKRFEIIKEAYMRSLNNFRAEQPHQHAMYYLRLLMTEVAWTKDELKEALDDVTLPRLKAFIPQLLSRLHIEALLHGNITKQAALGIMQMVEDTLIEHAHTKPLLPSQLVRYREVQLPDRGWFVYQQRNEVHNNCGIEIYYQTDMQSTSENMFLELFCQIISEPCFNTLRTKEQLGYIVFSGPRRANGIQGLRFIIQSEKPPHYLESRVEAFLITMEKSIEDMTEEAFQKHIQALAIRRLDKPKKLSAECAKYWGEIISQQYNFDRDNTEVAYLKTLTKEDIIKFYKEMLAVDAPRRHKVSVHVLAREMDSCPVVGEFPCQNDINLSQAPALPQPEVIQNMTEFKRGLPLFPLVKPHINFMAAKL
# [1] = Solubility of the compound at 100 uM; type: physicochemical
# [2] = Lipophilicity, logD of the compound in 1-octanol and phosphate buffer at pH 7.4 incubated for 2 hrs under shaking condition by LC-MS/MS analysis; type: physicochemical; conditions: 1-octanol/phosphate buffer
# [3] = Dissociation constant, pKa of the compound; type: physicochemical
# [4] = Solubility of the compound at 15 uM; type: physicochemical
# [5] = Aqueous thermodynamic solubility of the compound in phosphate buffer/MeOH at pH 7.4 measured after 24 hrs by LC-MS/MS analysis; type: physicochemical; conditions: read-out: Therm_solubility
# [6] = Stability in rat plasma assessed as half life at 10 uM; type: ADME, cell-free
EC50 (Insulin-degrading enzyme) [µM],solubility [1],Compound,other results
38.9,,O=C(CCCC1C(=O)Nc2ccccc21)NCCCn1ccnc1 (stereo unspecified),
15.5,,O=C(CCc1cn(S(=O)(=O)c2ccccc2)c2ccccc12)NCCCn1ccnc1,
,Insoluble,O=C(CCCc1cn(C(=O)c2ccc(Cl)cc2)c2ccccc12)NCCCn1ccnc1,
21.4,,O=C(CCCc1cn(C(=O)c2cccs2)c2ccccc12)NCCCn1ccnc1,
13.2,,O=C(CCCc1cn(S(=O)(=O)c2ccccc2)c2ccccc12)NCCCn1ccnc1,logD at 2 h [2]: 2.7; pKa [3]: 6.9; solubility [4]: Soluble
,Insoluble,O=C(CCCc1cn(S(=O)(=O)c2ccc(-c3ccccc3)cc2)c2ccccc12)NCCCn1ccnc1,
,Insoluble,O=C(CCCc1cn(-c2ccccc2)c2ccccc12)NCCCn1ccnc1,
14.5,,N[C@@H](Cc1cn(S(=O)(=O)c2ccccc2)c2ccccc12)C(=O)NCCCn1ccnc1,
,Insoluble,O=C(CCCc1cn(S(=O)(=O)c2cccc3nsnc23)c2ccccc12)NCCCn1ccnc1,
26.9,,CS(=O)(=O)n1cc(CCCC(=O)NCCCn2ccnc2)c2ccccc21,
,,O=C(CCCc1cn(S(=O)(=O)c2ccccc2)c2ccccc12)NCCCN1CCCC1,pKa [3]: 8.8
,Insoluble,O=C(NCCCn1ccnc1)c1cn(S(=O)(=O)c2ccccc2)c2ccccc12,
,,O=C(CCCc1cn(S(=O)(=O)c2cccs2)c2ccccc12)NCCCn1ccnc1,logD at 2 h [2]: 2.7; solubility thermodynamic at 24 h [5]: 8.9 µM; half-life at 10 µM [6]: > 24 h
12.3,,O=C(CCCc1nn(S(=O)(=O)c2ccccc2)c2ccccc12)NCCCn1ccnc1,
,Insoluble,O=C(CCCc1cn(S(=O)(=O)c2ccccc2F)c2ccccc12)NCCCn1ccnc1,
13.8,,O=C(CCCc1cn(S(=O)(=O)c2ccsc2)c2ccccc12)NCCCn1ccnc1,
,Insoluble,O=C(CCCc1cn(C(=O)c2ccc(F)cc2)c2ccccc12)NCCCn1ccnc1,
10.2,Insoluble,O=C(CCCc1cn(S(=O)(=O)c2cccc(F)c2)c2ccccc12)NCCCn1ccnc1,
14.1,,CN(CCCn1ccnc1)C(=O)CCCc1cn(S(=O)(=O)c2ccccc2)c2ccccc12,
10.2,,O=C(NCCCn1ccnc1)NCCc1cn(S(=O)(=O)c2ccccc2)c2ccccc12,
,,O=C(CCCc1cn(S(=O)(=O)c2ccccc2)c2ccccc12)NCCCc1c[nH]cn1,pKa [3]: 7
28.8,,Cn1cnc(S(=O)(=O)n2cc(CCCC(=O)NCCCn3ccnc3)c3ccccc32)c1,
,Insoluble,O=C(CCCCc1cn(S(=O)(=O)c2ccccc2)c2ccccc12)NCCCn1ccnc1,
,Insoluble,O=C(CCCc1cn(S(=O)(=O)c2ccc(F)cc2)c2ccccc12)NCCCn1ccnc1,
26.9,,O=C(CCCc1cn(S(=O)(=O)c2cccnc2)c2ccccc12)NCCCn1ccnc1,
